Test results: US20260022143A1, “Cyclic Peptide Inhibitors of IL-23” (JANSSEN PHARMACEUTICA NV, priority 2022, published 2026)
Structures can show the parent of a compound that is named as a salt. Starred links: 1 amine or outer side, 2 acyl side, 3 side chain; linkers in the order of their positions; H or OH if unused. Positions of bridges follow the written chain, without caps; N, C: chain ends. Non-standard residues stand in square brackets, D forms with d. Residues, ends and D or L forms follow the SMILES beside them. *: point of attachment. X68 = COCCOCCOCCOCCOCCOCCC(=O)N(CCCC[C@@H](N[*:1])C(=O)[*:2])C(C)=O; Trp(7-Me) = Cc1cccc2c(C[C@H](N)C(=O)O)c[nH]c12; Hexanoyl(6-NMe3+) = C[N+](C)(C)CCCCCC(=O)*; X23 = Cn1nnc(CC[C@H](N[*:1])C(=O)[*:2])n1; Dab(NMeAc) = CC(=O)N(C)CC[C@H](N)C(=O)O; Pro(4,4-F2) = O=C(O)[C@@H]1CC(F)(F)CN1; X29 = O=C([C@H](CCn1ncnn1)N[*:1])[*:2]; 2Nal = N[C@@H](Cc1ccc2ccccc2c1)C(=O)O; AEF = NCCOc1ccc(C[C@H](N)C(=O)O)cc1; 3Pal = N[C@@H](Cc1cccnc1)C(=O)O; Lys(Me) = CNCCCC[C@H](N)C(=O)O; Pen = CC(C)(S)[C@H](N)C(=O)O; Thp = NC1(C(=O)O)CCOCC1; Me2NCH2CH2 = CN(C)CC*; Tfa = O=C(C(F)(F)F)*; Sar = CNCC(=O)O

Experiment: Exposed Polar Surface Area (EPSA)
Assay type: physicochemical
Conditions: SFC on Chirex 3014 column; sample 1 mM DMSO stock; read-out: EPSA
How it was run: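 Chirex 3014 column, 35 °C, 4 mL/min; CO2/MeOH + 20 mM NH4 formate, 5→60% modifier at 20%/min. UV/MS detection. EPSA (Å^2) from retention time vs 8-standard calibration line; duplicates; 1 mM DMSO stock injected undiluted.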

Compared with `COCCOCCOCCOCCOCCOCCNCCOc1ccc(C[C@H](NC(=O)[C@H]2NC(=O)[C@H](CCCCNC(C)=O)NC(=O)[C@H](Cc3c[nH]c4c(C)cccc34)NC(=O)[C@H]([C@@H](C)O)NC(=O)[C@H](CC(N)=O)NC(=O)[C@@H](NC(C)=O)C(C)(C)SSC2(C)C)C(=O)N[C@@H](Cc2ccc3ccccc3c2)C(=O)NC2(C(=O)N[C@@H](CCCCNC(C)=O)C(=O)N[C@@H](CC(N)=O)C(=O)N[C@@H](Cc3cccnc3)C(=O)N(C)CC(N)=O)CCOCC2)cc1` [compound 65], `COCCOCCOCCOCCOCCOCCC(=O)N(CCCC[C@H]1NC(=O)[C@H](Cc2c[nH]c3c(C)cccc23)NC(=O)[C@H]([C@@H](C)O)NC(=O)[C@H](CC(N)=O)NC(=O)[C@@H](NC(C)=O)C(C)(C)SSC(C)(C)[C@@H](C(=O)N[C@@H](Cc2ccc(OCCN)cc2)C(=O)N[C@@H](Cc2ccc3ccccc3c2)C(=O)NC2(C(=O)N[C@@H](CCCCNC(C)=O)C(=O)N[C@@H](CC(N)=O)C(=O)N[C@@H](Cc3cccnc3)C(=O)N(C)CC(N)=O)CCOCC2)NC1=O)C(C)=O` [compound 78] (Ac-[Pen]NT[Trp(7-Me)][X68][Pen][AEF][2Nal][Thp]K(Ac)N[3Pal][Sar]-NH2; disulfide 1-6) is higher in EPSA: 154 A^2 for the first, 157 A^2 for the second.

Compared with `CC(=O)N(C)CCCC[C@@H]1NC(=O)[C@H](Cc2c[nH]c3c(C)cccc23)NC(=O)[C@H]([C@@H](C)O)NC(=O)[C@H](CC(=O)N(C)C)NC(=O)[C@@H](NC(=O)C(F)(F)F)C(C)(C)SSC(C)(C)[C@@H](C(=O)N[C@@H](Cc2ccc(OCCN(C)C)cc2)C(=O)N[C@@H](Cc2ccc3ccccc3c2)C(=O)NC2(C(=O)N[C@@H](CCCCN(C)C(C)=O)C(=O)N[C@@H](CC(N)=O)C(=O)N[C@@H](Cc3cccnc3)C(=O)N(C)CC(=O)N(C)C)CCOCC2)NC1=O` [compound 66, CF3CO-Pen(3)-N(N(Me)2)-T-7MeW-K(NMeAc)-Pen(3)-AEF(N(Me)2)-2Nal-THP-K(NMeAc)-N-3Pya-Sar-CON(Me)2] (Tfa-[Pen]D(NMe2)T[Trp(7-Me)][Lys(Me)](Ac)[Pen]Y(Me2NCH2CH2)[2Nal][Thp][Lys(Me)](Ac)N[3Pal][Sar]-NMe2; disulfide 1-6 (inferred)), `CC(=O)N(C)CCCC[C@@H]1NC(=O)[C@H](Cc2c[nH]c3c(C)cccc23)NC(=O)[C@H]([C@@H](C)O)NC(=O)[C@H](CC(=O)N(C)C)NC(=O)[C@@H](NC(=O)C(F)(F)F)C(C)(C)SSC(C)(C)[C@@H](C(=O)N[C@@H](Cc2ccc(OCCN(C)C)cc2)C(=O)N[C@@H](Cc2ccc3ccccc3c2)C(=O)NC2(C(=O)N[C@@H](CCC(=O)N(C)C)C(=O)N[C@@H](CC(N)=O)C(=O)N[C@@H](Cc3cccnc3)C(=O)N(C)CC(N)=O)CCOCC2)NC1=O` [compound 79, CF3CO-Pen(3)-N(N(Me)2)-T-7MeW-K(NMeAc)-Pen(3)-AEF(N(Me)2)-2Nal-THP-Q(N(Me)2)-N-3Pya-Sar-CONH2] (Tfa-[Pen]D(NMe2)T[Trp(7-Me)][Lys(Me)](Ac)[Pen]Y(Me2NCH2CH2)[2Nal][Thp]E(NMe2)N[3Pal][Sar]-NH2; disulfide 1-6 (inferred)) is higher in EPSA: 138 A^2 for the first, 144 A^2 for the second.

Going from `CC(=O)N(C)CCCC[C@@H]1NC(=O)[C@H](Cc2c[nH]c3c(C)cccc23)NC(=O)[C@H]([C@@H](C)O)NC(=O)[C@H](CC(N)=O)NC(=O)[C@@H](NC(=O)C(F)(F)F)C(C)(C)SSC(C)(C)[C@@H](C(=O)N[C@@H](Cc2ccc(OCCN)cc2)C(=O)N[C@@H](Cc2ccc3ccccc3c2)C(=O)NC2(C(=O)N[C@@H](CCCCN(C)C(C)=O)C(=O)N[C@@H](CC(N)=O)C(=O)N[C@@H](Cc3cccnc3)C(=O)N(C)CC(N)=O)CCOCC2)NC1=O` [compound 69] (Tfa-[Pen]NT[Trp(7-Me)][Lys(Me)](Ac)[Pen][AEF][2Nal][Thp][Lys(Me)](Ac)N[3Pal][Sar]-NH2; disulfide 1-6) to `CC(=O)NCCCC[C@H](NC(=O)C1(NC(=O)[C@H](Cc2ccc3ccccc3c2)NC(=O)[C@H](Cc2ccc(OCCN)cc2)NC(=O)[C@H]2NC(=O)[C@H](CCN(C)C(C)=O)NC(=O)[C@H](Cc3c[nH]c4c(C)cccc34)NC(=O)[C@H]([C@@H](C)O)NC(=O)[C@H](CC(N)=O)NC(=O)[C@@H](NC(=O)C(F)(F)F)C(C)(C)SSC2(C)C)CCOCC1)C(=O)N[C@@H](CC(N)=O)C(=O)N[C@@H](Cc1cccnc1)C(=O)N(C)CC(N)=O` [compound 70] (Tfa-[Pen]NT[Trp(7-Me)][Dab(NMeAc)][Pen][AEF][2Nal][Thp]K(Ac)N[3Pal][Sar]-NH2; disulfide 1-6), the EPSA falls from 161 A^2 to 157 A^2.

First: CC(=O)NCCCC[C@@H]1NC(=O)[C@H](Cc2c[nH]c3c(C)cccc23)NC(=O)[C@H]([C@@H](C)O)NC(=O)[C@H](CC(N)=O)NC(=O)[C@@H](NC(=O)C(F)(F)F)C(C)(C)SSC(C)(C)[C@@H](C(=O)N[C@@H](Cc2ccc(OCCN)cc2)C(=O)N[C@@H](Cc2ccc3ccccc3c2)C(=O)NC2(C(=O)N[C@@H](CCC(=O)N(C)C)C(=O)N[C@@H](CC(N)=O)C(=O)N[C@@H](Cc3cccnc3)C(=O)N(C)CC(N)=O)CCOCC2)NC1=O [compound 72] (Tfa-[Pen]NT[Trp(7-Me)]K(Ac)[Pen][AEF][2Nal][Thp]E(NMe2)N[3Pal][Sar]-NH2; disulfide 1-6 (inferred))
Second: CC(=O)N(C)CC[C@@H]1NC(=O)[C@H](Cc2c[nH]c3c(C)cccc23)NC(=O)[C@H]([C@@H](C)O)NC(=O)[C@H](CC(N)=O)NC(=O)[C@@H](NC(=O)C(F)(F)F)C(C)(C)SSC(C)(C)[C@@H](C(=O)N[C@@H](Cc2ccc(OCCN)cc2)C(=O)N[C@@H](Cc2ccc3ccccc3c2)C(=O)NC2(C(=O)N[C@@H](CCC(=O)N(C)C)C(=O)N[C@@H](CC(N)=O)C(=O)N[C@@H](Cc3cccnc3)C(=O)N(C)CC(N)=O)CCOCC2)NC1=O [compound 75] (Tfa-[Pen]NT[Trp(7-Me)][Dab(NMeAc)][Pen][AEF][2Nal][Thp]E(NMe2)N[3Pal][Sar]-NH2; disulfide 1-6)
The EPSA of the first is higher: 160 A^2 for the first, 157 A^2 for the second.

First: CC(=O)NCCCC[C@@H]1NC(=O)[C@H](Cc2c[nH]c3c(C)cccc23)NC(=O)[C@H]([C@@H](C)O)NC(=O)[C@H](CC(N)=O)NC(=O)[C@@H](NC(=O)C(F)(F)F)C(C)(C)SSC(C)(C)[C@@H](C(=O)N[C@@H](Cc2ccc(OCCN)cc2)C(=O)N[C@@H](Cc2ccc3ccccc3c2)C(=O)NC2(C(=O)N[C@@H](CCCCNC(C)=O)C(=O)N[C@@H](CC(N)=O)C(=O)N[C@@H](Cc3cccnc3)C(=O)N3CC(F)(F)C[C@H]3C(=O)N(C)C)CCOCC2)NC1=O [compound 73] (Tfa-[Pen]NT[Trp(7-Me)]K(Ac)[Pen][AEF][2Nal][Thp]K(Ac)N[3Pal][Pro(4,4-F2)]-NMe2; disulfide 1-6 (inferred))
Second: CC(=O)NCCCC[C@@H]1NC(=O)[C@H](Cc2c[nH]c3c(C)cccc23)NC(=O)[C@H]([C@@H](C)O)NC(=O)[C@H](CC(N)=O)NC(=O)[C@@H](NC(=O)C(F)(F)F)C(C)(C)SSC(C)(C)[C@@H](C(=O)N[C@@H](Cc2ccc(OCCN)cc2)C(=O)N[C@@H](Cc2ccc3ccccc3c2)C(=O)NC2(C(=O)N[C@@H](CCCCNC(C)=O)C(=O)N[C@@H](CC(N)=O)C(=O)N[C@@H](Cc3cccnc3)C(=O)N(C)CC(=O)N(C)C)CCOCC2)NC1=O [compound 74] (Tfa-[Pen]NT[Trp(7-Me)]K(Ac)[Pen][AEF][2Nal][Thp]K(Ac)N[3Pal][Sar]-NMe2; disulfide 1-6 (inferred))
The EPSA of the first is higher: 155 A^2 for the first, 154 A^2 for the second.

`CC(=O)NCCCC[C@@H]1NC(=O)[C@H](Cc2c[nH]c3c(C)cccc23)NC(=O)[C@H]([C@@H](C)O)NC(=O)[C@H](CC(N)=O)NC(=O)[C@@H](NC(=O)C(F)(F)F)C(C)(C)SSC(C)(C)[C@@H](C(=O)N[C@@H](Cc2ccc(OCCN)cc2)C(=O)N[C@@H](Cc2ccc3ccccc3c2)C(=O)NC2(C(=O)N[C@@H](CCc3nnn(C)n3)C(=O)N[C@@H](CC(N)=O)C(=O)N[C@@H](Cc3cccnc3)C(=O)N(C)CC(N)=O)CCOCC2)NC1=O` [compound 76] (Tfa-[Pen]NT[Trp(7-Me)]K(Ac)[Pen][AEF][2Nal][Thp][X23]N[3Pal][Sar]-NH2; disulfide 1-6) and `CC(=O)NCCCC[C@@H]1NC(=O)[C@H](Cc2c[nH]c3c(C)cccc23)NC(=O)[C@H]([C@@H](C)O)NC(=O)[C@H](CC(N)=O)NC(=O)[C@@H](NC(=O)C(F)(F)F)C(C)(C)SSC(C)(C)[C@@H](C(=O)N[C@@H](Cc2ccc(OCCN)cc2)C(=O)N[C@@H](Cc2ccc3ccccc3c2)C(=O)NC2(C(=O)N[C@@H](CCn3ncnn3)C(=O)N[C@@H](CC(N)=O)C(=O)N[C@@H](Cc3cccnc3)C(=O)N(C)CC(N)=O)CCOCC2)NC1=O` [compound 77] (Tfa-[Pen]NT[Trp(7-Me)]K(Ac)[Pen][AEF][2Nal][Thp][X29]N[3Pal][Sar]-NH2; disulfide 1-6) are the same in EPSA: 161 A^2 for the first, 161 A^2 for the second.

Compared with `CC(=O)NCCCC[C@@H]1NC(=O)[C@H](Cc2c[nH]c3c(C)cccc23)NC(=O)[C@H]([C@@H](C)O)NC(=O)[C@H](CC(N)=O)NC(=O)[C@@H](NC(=O)CCCCC[N+](C)(C)C)C(C)(C)SSC(C)(C)[C@@H](C(=O)N[C@@H](Cc2ccc(OCCN)cc2)C(=O)N[C@@H](Cc2ccc3ccccc3c2)C(=O)NC2(C(=O)N[C@@H](CCC(=O)O)C(=O)N[C@@H](CC(N)=O)C(=O)N[C@@H](Cc3cccnc3)C(=O)N(C)CC(N)=O)CCOCC2)NC1=O` [compound 81] ({Hexanoyl(6-NMe3+)}-[Pen]NT[Trp(7-Me)]K(Ac)[Pen][AEF][2Nal][Thp]EN[3Pal][Sar]-NH2; disulfide 1-6 (inferred)), `CC(=O)NCCCC[C@@H]1NC(=O)[C@H](Cc2c[nH]c3c(C)cccc23)NC(=O)[C@H]([C@@H](C)O)NC(=O)[C@H](CC(N)=O)NC(=O)[C@@H](NC(=O)[C@@H](CCCCNC(=O)CCCCC[N+](C)(C)C)NC(C)=O)C(C)(C)SSC(C)(C)[C@@H](C(=O)N[C@@H](Cc2ccc(OCCN)cc2)C(=O)N[C@@H](Cc2ccc3ccccc3c2)C(=O)NC2(C(=O)N[C@@H](CCC(=O)O)C(=O)N[C@@H](CC(N)=O)C(=O)N[C@@H](Cc3cccnc3)C(=O)N(C)CC(N)=O)CCOCC2)NC1=O` [compound 83] (Ac-[dK](Hexanoyl(6-NMe3+))[Pen]NT[Trp(7-Me)]K(Ac)[Pen][AEF][2Nal][Thp]EN[3Pal][Sar]-NH2; disulfide 2-7 (inferred)) is lower in EPSA: 173 A^2 for the first, 167 A^2 for the second.
